Experimental findings from US5208223A, “Phosphocholine derivative inhibitors of phospholipase A2” (American Cyanamid Company, priority 1992, dated 1993) are described below.

Broadly, the IC50 is the concentration needed to halve the response being measured.

Common to all, as to type: biochemical
In test [1] the target is T1, porcine pancreatic PLA2 (Sus scrofa, UniProt P00592).
T1 construct: purchased Sigma
Nature of the test: MHPLA2 assay: in vitro porcine pancreatic phospholipase A2, mixed micelle design, [s]=10 μm. The note with it: for inhibition at 25 µg/mL / inhibition at 10 µg/mL: subs. con. 10, read-out: % Inh.; for inhibition at 20 µg/mL: dose 20 μ/ml; for inhibition at 20 µg/mL / % Inh.: subs. con. 10; for IC50: subs. con. 10, read-out: IC50 (converted). In outline: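 Compounds dried with 10 μM 1-stearyl-2-[3H]-arachidonyl-PC substrate in mixed micelles (0.1M tris-HCl pH 9.0, 10 mM CaCl2, 10 mM Na taurocholate). Reaction started by adding enzyme and run 15 min at 37°C, then stopped with TCA. Released [3H]-arachidonate separated by TLC or column and counted by scintillation.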

Test [2] addresses T1, porcine pancreatic PLA2. Nature of the test: PLA2 assay: in vitro porcine pancreatic phospholipase A2, preincubation of drug+enzyme, substrate 2 nM. The note with it: preincubation, subs. con. 2; for inhibition at 10 µg/mL: dose 10 μ/ml; for inhibition at 20 µg/mL: dose 20 μ/ml; for IC50: read-out: IC50 (converted). In outline: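 Porcine pancreatic PLA2 acting on 2 nM radiolabeled arachidonyl-phosphatidylcholine in mixed micelles (0.1 M Tris-HCl pH 9.0, 10 mM CaCl2, 10 mM Na taurocholate), 15 min at 37 °C with preincubation of drug and enzyme. Stopped with TCA; released 3H-arachidonate extracted, separated by TLC or column, counted by scintillation.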

Test [3] concerns the target T1, porcine pancreatic PLA2. Nature of the test: MPLA2 assay: in vitro porcine pancreatic phospholipase A2, mixed micelle design, substrate 2 nM. The note with it: for inhibition at 25 µg/mL: dose 25 μ/ml; for IC50 / % Inh.: subs. con. 2. The procedure:
Phospholipase A2 activity was measured by a radiochemical assay in which labeled synthetic phosphatidylcholine substrate is converted by porcine pancreatic PLA2 to free radiolabeled arachidonate and lyso PC. Radiolabeled arachidonate is extracted from the reaction mixture and separated from unreacted substrate by column chromatography or TLC. Radioactivity (cpm) in samples is quantitated by liquid scintillation counting. Specific details are as follows:
Labeled substrate(1-stearyl-2-^3 H-arachidonylphosphatidylcholine; Amersham, sp. act. 84 (uCi/mmole, 0.025 to 0.2 uCi/assay tube and unlabeled substrates (Avanti), in sufficient quantity to give 20,000 cpm to 50,000 cpm and 10 μM to 1,000 μM final concentration/assay tube are dried under a stream of nitrogen. The PLA2 and mPLA2 assays utilized a […] substrate concentration. The mHPLA2 and HPLA2 assays (vida infra) utilized a 10 μM substrate concentration and the SmPLA2 assay utilized a substrate concentration ranging from 100 to 1000 μm. The substrate is then redissolved in 0.1M tris-HCl buffer, pH 9.0 containing 10 mM CaCl2 and 10 mM Na taurocholate detergent. The mixture is sonicated in a Kontes Sonifier to yield a homogeneous dispersion. The "mixed" micellar substrate is clear. An aliquot is reserved for a cpm count (total substrate). The total reaction volume is 500 μL; siliconized glassware or plasticware is used throughout. Enzyme (Sigma, sp. act.>690 U/mg protein and preferably 900 U/mg protein) is diluted 1:750 or 1:1000 in 0.1M tris-HCl buffer, pH 9.0 (without Ca^++ and detergent). Enzyme dilution depends on substrate concentration and required enzyme concentration.
The substrate in buffer is kept on ice until the reaction is started. The reaction is started by adding 10 μL of diluted enzyme solution to 490 μL of micellar substrate solution. Samples are incubated in a 37° C. water bath for 15 minutes with gentle mixing. The reaction is terminated by the addition of 100 μL of 1M fresh trichloroacetic acid (TCA) solution and chilling the tubes on ice for 30 minutes.
Samples (600 μL) are extracted with 3 ml CHCl3 /MeOH (2:1) for thin layer chromatography or in hexane/ether (9:1) for column chromatography. The phases are separated by gentle centrifugation at 700 rpm×5'. The organic phase is recovered.
Labeled arachidonate extracted with CHCl3 /MeOH is separated on silica gel G TLC plates (Analtech). Twenty μL of a 2 mg/ml internal standard solution of arachidonic acid (Sigma) is combined with 2-3 ml of the organic phase. The entire mixture is dried under nitrogen and redissolved in 50 μL of CHCl3 /MeOH (2:1). A 20 μL sample is counted in 10 ml of Beckman Redi-solv HP and spotted on silica gel G plates. The solvent system used to develop the plate is CHCl3 /MeOH/13.5N NH3 /H2 O (70:30:4:1). Plates are developed in a glass chamber for 1-11/2 hours, air dried, and the spots visualized in an iodine vapor chamber. Standards of phosphatidylcholine, lyso PC, and arachidonic acid (Sigma) are made as 2 mg/ml stocks in CHCl3 /MeOH (2:1) and spotted on plates. Spots corresponding to arachidonate and phospholipid are scraped and counted in 10 ml Beckman Redi-Solv HP scintillation fluid.
Samples are extracted with hexane/ether and the upper organic phase recovered. An aliquot is applied to a Silicar CC4 (Malincrodt) column. Columns are prepared using 1 ml of a 1:1 slurry of silicar CC4 in hexane/ether in a Pasteur pipet (approx. 2 cm height). Columns are rinsed with 500 μL of hexane/ether before adding the sample (300-600 μL) to the column. Columns are eluted with a total of 6 ml of hexane/ether. The 6 ml sample is counted in 10 ml of Beckman Redi-Solv HP scintillation fluid.
or the phospholipase A2 assay, compounds are prepared as 1 mg/ml stock solutions in MeOH and diluted appropriately in PBS. […]

[4] abbreviates: subs. con. 2, read-out: % Inh. Avg.
The mark [5] stands for this setting: dose 10 μ/ml, subs. con. 2, read-out: % Inh.
Where [6] appears, read: dose 20 μ/ml, subs. con. 2, read-out: % Inh.

Values joined by “and” are separate entries in the source; they are usually repeats but may differ in a detail not shown here. Equal entries are not always repeated. Structures can show the parent of a compound that is named as a salt.

T1 sequence (P00592 23-146): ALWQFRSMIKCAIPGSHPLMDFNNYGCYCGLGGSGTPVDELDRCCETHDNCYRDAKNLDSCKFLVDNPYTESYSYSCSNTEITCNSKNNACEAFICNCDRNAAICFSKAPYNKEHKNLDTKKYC

Take `CCCCCCCCCCCCCCCC[S+]([O-])CCCOP(=O)([O-])OCC[N+](C)(C)C` (stereo not shown) [4-Hydroxy-N,N,N-trimethyl-3,5-dioxa-9-thia-4-phosphapentacosan-1-aminium, hydroxide, inner salt, 4.9-dioxide]: the inhibition at 25 µg/mL was 16% in test [1] (dose 25 μ/ml); 68% in test [3] (subs. con. 2, read-out: % Inh.); 71% in test [3] (setting [4]). Besides, the results for the inhibition at 10 µg/mL in test [2] (read-out: % Inh.) and in test [2] (read-out: % Inh. Avg.) were 59% and 61%, respectively. Further, in test [2] (read-out: % Inh.), the inhibition at 20 µg/mL was determined as 82%. In addition, in test [2], the IC50 was 12.5 µM.
Take `CCCCCCCCCCCCCCCCS(=O)(=O)CCCOP(=O)([O-])OCC[N+](C)(C)C` [4-Hydroxy-N,N,N-trimethyl-3,5-dioxa-9-thia-4-phosphapentacosan-1-aminium, hydroxide, inner salt, 4.9.9-trioxide]: the inhibition at 10 µg/mL in test [1] (dose 10 μ/ml) is 0%; in test [2] (read-out: % Inh.), 65%; in test [2] (read-out: % Inh. Avg.) it was 69%; in test [3] (setting [5]), 24%. The inhibition at 20 µg/mL in test [1] worked out at 19%; in test [2] (read-out: % Inh.), 88%; in test [3] (setting [6]), 62%. The inhibition at 25 µg/mL in test [1] (dose 25 μ/ml) is 24%. Moreover, the IC50 was 121 µM in test [1], 9.54 µM in test [2] and 37.2 µM in test [3].
Regarding `CCCCCCCCCCCCCCCCOCC(COP(=O)([O-])OCC[N+](C)(C)C)CB(O)O` (stereo not shown) [7-(Boronomethyl)-4-hydroxy-N,N,N-trimethyl-3,5,9-trioxa-4-phosphapentacosan-1-aminium, hydroxide, inner salt, 4-oxide], in test [1] (dose 25 μ/ml), the inhibition at 25 µg/mL is 9%. In test [2] (read-out: % Inh.), the inhibition at 10 µg/mL is 57% and the inhibition at 20 µg/mL came to 77%. Moreover, the 50% inhibitory concentration (IC50) in test [2] was 10.7 µM. Besides, the inhibition at 25 µg/mL in test [3] (setting [4]) came to 44%.
Consider `CCCCCCCCCCCCCCCC[C@]1(COP(=O)([O-])OCC[N+](C)(C)C)CC(=O)N1` [(2R)-2-[[[(2-Hexadecyl-4-oxo-2-azetidinyl)methoxy]hydroxyphosphinyl]oxy]-N,N,N-trimethylethanaminium, hydroxide, inner salt], for which the “% Inh.” value in test [1] (dose 10 μ/ml), in test [3] (dose 10 μ/ml) and in test [3] (dose 20 μ/ml) was “STIM” each time. In addition, the inhibition at 20 µg/mL was determined as 0% in test [1] and 79% in test [2] (read-out: % Inh.). Besides, the inhibition at 25 µg/mL in test [1] (dose 25 μ/ml) is 26%. Besides, in test [2] (read-out: % Inh.), the inhibition at 10 µg/mL worked out at 82%. Also, the IC50 in test [2] is 2.85 µM.
In the case of `CCCCCCCCCCCCCCCCOCC(COP(=O)([O-])OCC[N+](C)(C)C)CC(=O)C(=O)CCCCCCCCCCCCCCCC` (stereo not shown) [7-(2,3-Dioxononadecyl)-4-hydroxy-N,N,N-trimethyl-3,5,9-trioxa-4-phosphapentacosan-1-aminium, hydroxide, inner salt, 4-oxide], the inhibition at 25 µg/mL in test [1] (dose 25 μ/ml) was found to be 0%; in test [3] (subs. con. 2, read-out: % Inh.) it was 25%. Besides, in test [2] (read-out: % Inh.), the inhibition at 10 µg/mL is 61%. Moreover, the inhibition at 20 µg/mL in test [2] (read-out: % Inh.) was 61%. For the same compound, in test [2], the IC50 was 7.1 µM.
Take `CCCCCCCCCCCCCCCCSCCCOP(=O)([O-])OCC[N+](C)(C)C` [3,5-Dioxa-9-thia-4-phosphapentacosan-1-aminium, 4-hydroxy-N,N,N-trimethyl-,hydroxide, inner salt, 4-oxide]: in test [1] (dose 25 μ/ml), the “% Inh.” value is listed as “STIM”. The inhibition at 10 µg/mL in test [2] (read-out: % Inh.) stood at 54%; in test [2] (read-out: % Inh. Avg.) it was 4.5%; in test [3] (setting [5]), 46%. Further, the values for the inhibition at 20 µg/mL in test [2] (read-out: % Inh.) and in test [3] (setting [6]) were 64% and 83%, respectively. Also, the results for the IC50 in test [2] and in test [3] were 12.9 µM and 16 µM, respectively. Moreover, the inhibition at 25 µg/mL in test [3] (subs. con. 2, read-out: % Inh.) amounted to 74%; in test [3] (setting [4]), 80%.
For the compound `CCCCCCCCCCCCCCCCCC(=O)NCC(CO)COCCCCCCCCCCCCCCCC` (stereo not shown) [N-[3-(Hexadecyloxy)-2-hydroxymethyl)propyl]octadecanamide], the inhibition at 25 µg/mL in test [1] (dose 25 μ/ml) was 35%; in test [2] (dose 25 μ/ml, read-out: % Inh.), 93%; in test [3] (subs. con. 2, read-out: % Inh.), 93%. Also, the inhibition at 20 µg/mL in test [2] (read-out: % Inh.) was determined as 24%.
Regarding `CCCCCCCCCCCCCCCCOCC(CC=NO)COP(=O)([O-])OCC[N+](C)(C)C` (stereo not shown) [4-Hydroxy-7-[2-(hydroxyimino)ethyl]-N,N,N-trimethyl-3,5,9-trioxa-4-phosphaoentacosan-1-aminium, hydroxide, inner salt, 4-oxide], the inhibition at 10 µg/mL in test [1] (dose 10 μ/ml) came to 0%; in test [2] (read-out: % Inh.), 56%; in test [2] (read-out: % Inh. Avg.) it was 53%; in test [3] (setting [5]) it was 19%. Further, the inhibition at 20 µg/mL in test [1] turned out to be 8%; in test [2] (read-out: % Inh.) it was 81%; in test [3] (setting [6]), 57%. The inhibition at 25 µg/mL worked out at 28% in test [1] (dose 25 μ/ml); 51% in test [3] (subs. con. 2, read-out: % Inh.); 55% in test [3] (setting [4]). Further, in test [2], the IC50 is 10.1 µM.
Consider `CCCCCCCCCCCCCCCCOCC(COP(=O)([O-])OCC[N+](C)(C)C)CP(=O)(OCC)OCC` (stereo not shown), for which the inhibition at 10 µg/mL in test [1] (dose 10 μ/ml) stood at 18%; in test [2] (read-out: % Inh.) it was 71%; in test [2] (read-out: % Inh. Avg.), 74%; in test [3] (setting [5]) it was 36%. The values for the inhibition at 20 µg/mL in test [1], in test [2] (read-out: % Inh.) and in test [3] (setting [6]) were 44%, 81% and 60%, respectively. The inhibition at 25 µg/mL in test [1] (dose 25 μ/ml) turned out to be 45%. In addition, the IC50 is 91.3 µM and 265 µM in test [1]; 8.12 µM in test [2]; 27.3 µM in test [3].
In the case of `CCCCCCCCCCCCCCCCOCC(COP(=O)([O-])OCC[N+](C)(C)C)CC(O)C(F)(F)CCCCCCCCCCCCCCCC` (stereo not shown) [3,5.9-Trioxa-4-phosphapentacosan-1-aminium, 7-(3,3-difluoro-2-hydroxynonadecyl)-4-hydroxy-N,N,N-trimethyl-, hydroxide, inner salt, 4-oxide], the inhibition at 25 µg/mL amounted to 11% in test [1] (dose 25 μ/ml) and 82% in test [3] (subs. con. 2, read-out: % Inh.). In test [2] (read-out: % Inh.), the inhibition at 10 µg/mL came out at 45%. In addition, in test [2] (read-out: % Inh.), the inhibition at 20 µg/mL is 49%.
